Counter-ions that a name gives are not always drawn.
Assays:
[1] = test system: MDA-MB-453 cell line (FGFR4-Y367C); test: Cancer cell line cell viability assay (Cell Titer-Glo), 120 hr; assay type: cell-based; conditions: Homo sapiens
Summary of the method: (§1)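 Cells were seeded at 5,000–20,000 per well, then exposed to a 9-point, 4-fold dilution series from 3 μM top concentration in triplicate at 37° C. Exposure was 120 h for MDA-MB-453 and HuH7 and 72 h for KG-1 and RT112/84. Viability was read as ATP by Cell Titer-Glo 2.0, expressed as % of DMSO control, and fitted by 4-parameter IC50.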

[2] = biological target: T1, FGFR3 (Homo sapiens, UniProt P22607); test: Kinase binding assay (kinase-tagged T7 phage, affinity beads, qPCR), Kd; conditions: read-out: FGFR3 (Kd nM)
T1 construct: made in house; host or cells: E. coli (BL21-derived), T7 phage
T1 sequence (P22607 23-806): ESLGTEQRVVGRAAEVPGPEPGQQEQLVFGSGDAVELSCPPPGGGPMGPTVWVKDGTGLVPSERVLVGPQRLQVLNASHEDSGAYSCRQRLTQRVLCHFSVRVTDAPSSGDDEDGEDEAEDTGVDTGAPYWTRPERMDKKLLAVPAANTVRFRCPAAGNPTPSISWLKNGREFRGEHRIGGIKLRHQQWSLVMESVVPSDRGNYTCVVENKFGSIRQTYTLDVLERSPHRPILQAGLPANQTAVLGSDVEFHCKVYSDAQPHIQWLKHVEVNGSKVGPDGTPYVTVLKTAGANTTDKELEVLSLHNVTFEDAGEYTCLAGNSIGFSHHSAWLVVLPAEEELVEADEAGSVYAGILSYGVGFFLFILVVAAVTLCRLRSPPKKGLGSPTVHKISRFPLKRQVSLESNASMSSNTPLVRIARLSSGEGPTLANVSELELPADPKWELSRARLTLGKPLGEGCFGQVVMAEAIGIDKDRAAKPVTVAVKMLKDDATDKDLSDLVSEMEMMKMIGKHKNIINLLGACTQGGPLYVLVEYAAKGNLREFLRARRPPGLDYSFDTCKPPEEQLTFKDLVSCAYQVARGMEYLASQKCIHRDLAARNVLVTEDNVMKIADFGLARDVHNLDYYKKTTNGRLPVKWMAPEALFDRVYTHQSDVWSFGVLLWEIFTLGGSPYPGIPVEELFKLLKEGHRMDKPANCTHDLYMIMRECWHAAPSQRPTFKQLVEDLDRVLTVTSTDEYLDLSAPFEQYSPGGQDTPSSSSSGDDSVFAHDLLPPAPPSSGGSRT
Summary of the method: (§2)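 Phage-tagged kinase capture on small-molecule affinity resin, compound competition, qPCR quantitation; Kd from Levenberg-Marquardt Hill fit.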

[3] = biological target: T2, FGFR1 (Homo sapiens, UniProt P11362); test: as above; conditions: read-out: FGFR1 (Kd nM)
T2 construct: made in house; host or cells: E. coli (BL21-derived), T7 phage
T2 sequence (P11362 22-822): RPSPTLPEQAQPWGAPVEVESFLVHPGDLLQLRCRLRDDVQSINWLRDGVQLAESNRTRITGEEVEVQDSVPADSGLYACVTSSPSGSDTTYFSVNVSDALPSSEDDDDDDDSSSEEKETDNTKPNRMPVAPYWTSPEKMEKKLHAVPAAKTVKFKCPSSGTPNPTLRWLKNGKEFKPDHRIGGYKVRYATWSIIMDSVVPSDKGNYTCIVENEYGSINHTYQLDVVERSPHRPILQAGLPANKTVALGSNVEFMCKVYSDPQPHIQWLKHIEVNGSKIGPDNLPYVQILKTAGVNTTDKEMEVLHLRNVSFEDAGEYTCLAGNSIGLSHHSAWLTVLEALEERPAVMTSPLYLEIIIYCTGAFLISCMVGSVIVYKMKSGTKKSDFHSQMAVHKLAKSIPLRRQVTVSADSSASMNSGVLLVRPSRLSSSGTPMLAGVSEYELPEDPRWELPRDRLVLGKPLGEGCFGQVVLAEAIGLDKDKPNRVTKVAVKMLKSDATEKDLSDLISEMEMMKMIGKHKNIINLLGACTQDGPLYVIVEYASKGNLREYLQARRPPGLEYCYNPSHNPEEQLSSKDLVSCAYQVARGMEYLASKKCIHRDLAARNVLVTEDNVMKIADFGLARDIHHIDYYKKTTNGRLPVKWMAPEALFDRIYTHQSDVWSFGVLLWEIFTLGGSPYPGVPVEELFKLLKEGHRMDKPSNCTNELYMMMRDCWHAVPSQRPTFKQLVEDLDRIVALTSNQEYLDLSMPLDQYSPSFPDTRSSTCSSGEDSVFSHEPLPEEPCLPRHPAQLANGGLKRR
Summary of the method: as §2

[4] = test system: KATO-III cell line (FGFR2 amplification); test: Cancer cell line cell viability assay (Cell Titer-Glo), 72 hr; assay type: cell-based; conditions: Homo sapiens, KATO III
Summary of the method: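 Following overnight attachment, each line receives compound in triplicate across nine 4-fold dilutions starting at 3 μM, with DMSO backfill for equal solvent. Luminescence after Cell Titer-Glo 2.0 addition gives percent viability versus DMSO control, fitted by 4-parameter logistic for IC50.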

[5] = test system: KG-1 cell line (FGFR 1-fusion); test: as above; assay type: cell-based; conditions: Homo sapiens, KG-1, KG-1 cell line (FGFR1-fusion)
Summary of the method: as §1

[6] = test system: RT112/84 cell line (FGFR3-fusion); test: as above; assay type: cell-based; conditions: Homo sapiens, RT112/84, RT112/84 cell line (FGFR3-fusion)
Summary of the method: as §1

Row | Compound | IC50 [1] | Kd [2] | Kd [3] | IC50 [4] | IC50 [5] | IC50 [6]
1 | C[C@@H](Oc1ccc2[nH]nc(-c3cnc(N4CC(N)(Cc5ccn(C)n5)C4)c(F)c3)c2c1)c1c(Cl)cncc1Cl [Example 282, (R)-1-(5-(5-(1-(3,5-dichloropyridin-4-yl)ethoxy)-1H-indazol-3-yl)-3-fluoropyridin-2-yl)-3-((1-methyl-1H-pyrazol-3-yl)methyl)azetidin-3-amine] | 0.05 to 0.2 µM | 1 to 50 nM | 1 to 50 nM | 0.05 to 0.2 µM | 0.05 to 0.2 µM | 0.0001 to 0.05 µM
2 | C[C@@H](Oc1ccc2[nH]nc(-c3ccc(N4CC(N)(CCC#N)C4)nn3)c2c1)c1c(Cl)cncc1Cl [Example 285, (R)-3-(3-amino-1-(6-(5-(1-(3,5-dichloropyridin-4-yl)ethoxy)-1H-indazol-3-yl)pyridazin-3-yl)azetidin-3-yl)propanenitrile] | 0.2 to 1 µM | 1 to 50 nM | 1 to 50 nM | 0.0001 to 0.05 µM | 0.0001 to 0.05 µM | 0.0001 to 0.05 µM
3 | C[C@@H](Oc1ccc2[nH]nc(-c3cnc(N4CC(CC#N)(N5CCCC5)C4)c(F)c3)c2c1)c1c(Cl)cncc1Cl [Example 251, (R)-2-(1-(5-(5-(1-(3,5-dichloropyridin-4-yl)ethoxy)-1H-indazol-3-yl)-3-fluoropyridin-2-yl)-3-(pyrrolidin-1-yl)azetidin-3-yl)acetonitrile] | 0.05 to 0.2 µM | 1 to 50 nM | 1 to 50 nM | 0.0001 to 0.05 µM | 0.05 to 0.2 µM | 0.0001 to 0.05 µM
4 | C[C@@H](Oc1ccc2[nH]nc(-c3cnc(N4CC(N)(CCS(C)(=O)=O)C4)c(F)c3)c2c1)c1c(Cl)cncc1Cl [Example 270, (R)-1-(5-(5-(1-(3,5-dichloropyridin-4-yl)ethoxy)-1H-indazol-3-yl)-3-fluoropyridin-2-yl)-3-(2-(methylsulfonyl)ethyl)azetidin-3-amine] | 0.0001 to 0.05 µM | 1 to 50 nM | 1 to 50 nM | 0.0001 to 0.05 µM | 0.05 to 0.2 µM | 0.0001 to 0.05 µM
5 | C[C@@H](Oc1ccc2[nH]nc(-c3cnc(N4CC(C)(NCC5CC5)C4)cc3F)c2c1)c1c(Cl)cncc1Cl [Example 243, (R)—N-(cyclopropylmethyl)-1-(5-(5-(1-(3,5-dichloropyridin-4-yl)ethoxy)-1H-indazol-3-yl)-4-fluoropyridin-2-yl)-3-methylazetidin-3-amine] | 0.05 to 0.2 µM | 1 to 50 nM | 1 to 50 nM | 0.2 to 1 µM | 0.2 to 1 µM | 0.0001 to 0.05 µM
6 | C[C@@H](Oc1ccc2[nH]nc(-c3cnc(N4CC(C)(OCCN5CCCC5)C4)c(F)c3)c2c1)c1c(Cl)cncc1Cl [Example 261, (R)-5-(1-(3,5-dichloropyridin-4-yl)ethoxy)-3-(5-fluoro-6-(3-methyl-3-(2-(pyrrolidin-1-yl)ethoxy)azetidin-1-yl)pyridin-3-yl)-1H-indazole] | 0.05 to 0.2 µM | 1 to 50 nM | 1 to 50 nM | 0.0001 to 0.05 µM | 0.05 to 0.2 µM | 0.0001 to 0.05 µM
7 | CC(C)CN(C)C1(C)CN(c2ncc(-c3n[nH]c4ccc(O[C@H](C)c5c(Cl)cncc5Cl)cc34)cc2F)C1 [Example 245, (R)-1-(5-(5-(1-(3,5-dichloropyridin-4-yl)ethoxy)-1H-indazol-3-yl)-3-fluoropyridin-2-yl)-N-isobutyl-N,3-dimethylazetidin-3-amine] | > 1 µM | 1 to 50 nM | 50 to 300 nM | > 1 µM | > 1 µM | 0.05 to 0.2 µM
8 | C=CCC1(N)CN(c2ccc(-c3n[nH]c4ccc(O[C@H](C)c5c(Cl)cncc5Cl)cc34)nn2)C1 [Example 274, (R)-3-allyl-1-(6-(5-(1-(3,5-dichloropyridin-4-yl)ethoxy)-1H-indazol-3-yl)pyridazin-3-yl)azetidin-3-amine] | 0.2 to 1 µM | 1 to 50 nM | 1 to 50 nM | 0.0001 to 0.05 µM | 0.05 to 0.2 µM | 0.0001 to 0.05 µM
9 | CCC1(NCC2CC2)CN(c2ncc(-c3n[nH]c4ccc(O[C@H](C)c5c(Cl)cncc5Cl)cc34)cc2F)C1 [Example 247, N-(cyclopropylmethyl)-1-[5-[5-[(1R)-1-(3,5-dichloro-4-pyridyl)ethoxy]-1H-indazol-3-yl]-3-fluoro-2-pyridyl]-3-ethyl-azetidin-3-amine dihydrochloride] | 0.05 to 0.2 µM | 1 to 50 nM | 1 to 50 nM | 0.05 to 0.2 µM | 0.05 to 0.2 µM | 0.0001 to 0.05 µM
10 | C[C@@H](Oc1ccc2[nH]nc(-c3cnc(N4CC(N)(CC(C)(C)O)C4)c(F)c3)c2c1)c1c(Cl)cncc1Cl [Example 266, (R)-1-(3-amino-1-(5-(5-(1-(3,5-dichloropyridin-4-yl)ethoxy)-1H-indazol-3-yl)-3-fluoropyridin-2-yl)azetidin-3-yl)-2-methylpropan-2-ol] | > 1 µM | 1 to 50 nM | 1 to 50 nM | 0.05 to 0.2 µM | 0.2 to 1 µM | 0.0001 to 0.05 µM

Next, values leading:

Row | IC50 [1] | Kd [2] | Kd [3] | IC50 [4] | IC50 [5] | IC50 [6] | Compound
11 | 0.2 to 1 µM | 1 to 50 nM | 1 to 50 nM | 0.05 to 0.2 µM | > 1 µM | 0.0001 to 0.05 µM | C[C@@H](Oc1ccc2[nH]nc(-c3ccc(N4CC(N)(CCO)C4)nn3)c2c1)c1c(Cl)cncc1Cl [Example 267, (R)-2-(3-amino-1-(6-(5-(1-(3,5-dichloropyridin-4-yl)ethoxy)-1H-indazol-3-yl)pyridazin-3-yl)azetidin-3-yl)ethanol]
12 | 0.05 to 0.2 µM | 1 to 50 nM | 1 to 50 nM | 0.05 to 0.2 µM | 0.05 to 0.2 µM | 0.0001 to 0.05 µM | C[C@@H](Oc1ccc2[nH]nc(-c3cnc(N4CC(N)(C5CCC5)C4)c(F)c3)c2c1)c1c(Cl)cncc1Cl [Example 256, (R)-3-cyclobutyl-1-(5-(5-(1-(3,5-dichloropyridin-4-yl)ethoxy)-1H-indazol-3-yl)-3-fluoropyridin-2-yl)azetidin-3-amine]
13 | 0.2 to 1 µM | 1 to 50 nM | 1 to 50 nM | 0.05 to 0.2 µM | 0.2 to 1 µM | 0.0001 to 0.05 µM | C[C@@H](Oc1ccc2[nH]nc(-c3cnc(N4CC(C)(N(C)CC5CC5)C4)c(F)c3)c2c1)c1c(Cl)cncc1Cl [Example 246, (R)-N-(cyclopropyl-methyl)-1-(5-(5-(1-(3,5-dichloropyridin-4-yl)ethoxy)-1H-indazol-3-yl)-3-fluoropyridin-2-yl)-N,3-dimethylazetidin-3-amine]
14 | 0.0001 to 0.05 µM | 1 to 50 nM | 1 to 50 nM | 0.0001 to 0.05 µM | 0.05 to 0.2 µM | 0.0001 to 0.05 µM | C[C@@H](Oc1ccc2[nH]nc(-c3cnc(N4CC(N)(CCO)C4)c(F)c3)c2c1)c1c(Cl)cncc1Cl [Example 259, (R)-2-(3-amino-1-(5-(5-(1-(3,5-dichloropyridin-4-yl)ethoxy)-1H-indazol-3-yl)-3-fluoropyridin-2-yl)azetidin-3-yl)ethanol]
15 | 0.05 to 0.2 µM | 1 to 50 nM | 1 to 50 nM | 0.0001 to 0.05 µM | 0.05 to 0.2 µM | 0.0001 to 0.05 µM | CC(C)C1(N)CN(c2ncc(-c3n[nH]c4ccc(O[C@H](C)c5c(Cl)cncc5Cl)cc34)cc2F)C1 [Example 255, (R)-1-(5-(5-(1-(3,5-dichloropyridin-4-yl)ethoxy)-1H-indazol-3-yl)-3-fluoropyridin-2-yl)-3-isopropylazetidin-3-amine]
